Results taken from ChEMBL document CHEMBL3390848, “Affinity selection and sequence-activity relationships of HIV-1 membrane fusion inhibitors directed at the drug-resistant variants” (Medchemcomm, 2010).
Residues, ends and D or L forms follow the SMILES beside them.

How the values were obtained:
[1] = tested on: Human immunodeficiency virus 1; test: Antiviral activity against HIV1 NL4-3 harboring gp41 D36G mutant infected in human HeLa cells expressing CD4-LTR-beta-gal assessed as inhibition of viral replication after 48 hrs by MAGI assay; type: functional, organism-based
[2] = tested on: Human immunodeficiency virus 1; test: Thermal stability of HIV1 envelope glycoprotein gp41 His-tagged N-terminal heptad repeat N54-drug complex assessed as thermal unfolding transition state by measuring molar ellipticity at 4 to 90 degC by circular dichroic spectra analysis
[3] = tested on: Human immunodeficiency virus 1; test: Binding affinity to HIV1 His-tagged N-terminal heptad repeat of envelope glycoprotein gp41 assessed as recovery of N54-drug complex after 2 hrs by LC-MS analysis; parameters: concentration or dose not given beside the values

| Compound | EC50 [1] [nM] | Tm [2] [°C] | Activity [3] [%] |
| --- | --- | --- | --- |
| CC[C@H](C)[C@H](NC(=O)[C@H](CC(C)C)NC(=O)[C@H](CCC(=O)O)NC(=O)[C@H](CCC(=O)O)NC(=O)[C@@H](NC(=O)[C@H](CC(C)C)NC(=O)[C@H](CO)NC(=O)[C@@H](NC(=O)[C@H](Cc1ccc(O)cc1)NC(C)=O)[C@@H](C)O)[C@@H](C)CC)C(=O)N[C@@H](CCCCN)C(=O)N[C@@H](CCCCN)C(=O)N[C@@H](CO)C(=O)N[C@@H](CCC(=O)O)C(=O)N[C@@H](CCC(=O)O)C(=O)N[C@@H](CO)C(=O)N[C@@H](CCC(N)=O)C(=O)N[C@@H](CCCCN)C(=O)N[C@@H](CCCCN)C(=O)N[C@@H](CC(N)=O)C(=O)N[C@@H](CCC(=O)O)C(=O)N[C@@H](CCC(=O)O)C(=O)N[C@@H](CCC(=O)O)C(=O)N[C@@H](CC(C)C)C(=O)N[C@@H](CCCCN)C(=O)N[C@@H](CCCCN)C(=O)N[C@@H](CC(C)C)C(=O)N[C@@H](CCC(=O)O)C(=O)N[C@@H](CCC(=O)O)C(=O)N[C@@H](Cc1c[nH]c2ccccc12)C(=O)N[C@@H](C)C(=O)N[C@@H](CCCCN)C(=O)N[C@@H](CCCCN)C(=O)N[C@@H](Cc1c[nH]c2ccccc12)C(=O)N[C@@H](CC(N)=O)C(=O)N[C@@H](Cc1c[nH]c2ccccc12)C(=O)N[C@@H](Cc1ccccc1)C(N)=O (Ac-YTSLIEELIKKSEESQKKNEEELKKLEEWAKKWNWF-NH2) | 4.6 | 66.7 | 3.2 |
| CC[C@H](C)[C@H](NC(=O)[C@H](CC(C)C)NC(=O)[C@H](CCC(=O)O)NC(=O)[C@H](CCC(=O)O)NC(=O)[C@@H](NC(=O)[C@H](CC(C)C)NC(=O)[C@H](CO)NC(=O)[C@@H](NC(=O)[C@H](Cc1ccc(O)cc1)NC(C)=O)[C@@H](C)O)[C@@H](C)CC)C(=O)N[C@@H](CCCCN)C(=O)N[C@@H](CCCCN)C(=O)N[C@@H](CO)C(=O)N[C@@H](CCC(=O)O)C(=O)N[C@@H](CCC(=O)O)C(=O)N[C@H](C(=O)N[C@@H](CCC(N)=O)C(=O)N[C@@H](CCCCN)C(=O)N[C@@H](CCCCN)C(=O)N[C@@H](CC(N)=O)C(=O)N[C@@H](CCC(=O)O)C(=O)N[C@@H](CCC(=O)O)C(=O)N[C@@H](CCC(=O)O)C(=O)N[C@@H](CC(C)C)C(=O)N[C@@H](CCCCN)C(=O)N[C@@H](CCCCN)C(=O)N[C@@H](CC(C)C)C(=O)N[C@@H](CCC(=O)O)C(=O)N[C@@H](CCC(=O)O)C(=O)N[C@@H](Cc1c[nH]c2ccccc12)C(=O)N[C@@H](C)C(=O)N[C@@H](CCCCN)C(=O)N[C@@H](CCCCN)C(=O)N[C@@H](Cc1c[nH]c2ccccc12)C(=O)N[C@@H](CC(N)=O)C(=O)N[C@@H](Cc1c[nH]c2ccccc12)C(=O)N[C@@H](Cc1ccccc1)C(N)=O)[C@@H](C)O (Ac-YTSLIEELIKKSEETQKKNEEELKKLEEWAKKWNWF-NH2) | 2.1 | 71.6 | 6.9 |
| CC[C@H](C)[C@H](NC(=O)[C@H](CC(C)C)NC(=O)[C@H](CCC(=O)O)NC(=O)[C@H](CCC(=O)O)NC(=O)[C@@H](NC(=O)[C@H](CC(C)C)NC(=O)[C@H](CO)NC(=O)[C@@H](NC(=O)[C@H](Cc1ccc(O)cc1)NC(C)=O)[C@@H](C)O)[C@@H](C)CC)C(=O)N[C@@H](CCCCN)C(=O)N[C@@H](CCCCN)C(=O)N[C@@H](CO)C(=O)N[C@@H](CCC(=O)O)C(=O)N[C@@H](CCC(=O)O)C(=O)N[C@H](C(=O)N[C@@H](CCC(N)=O)C(=O)N[C@@H](CCCCN)C(=O)N[C@@H](CCCCN)C(=O)N[C@@H](CC(N)=O)C(=O)N[C@@H](CCC(=O)O)C(=O)N[C@@H](CCC(=O)O)C(=O)N[C@@H](CCC(=O)O)C(=O)N[C@@H](CC(C)C)C(=O)N[C@@H](CCCCN)C(=O)N[C@@H](CCCCN)C(=O)N[C@@H](CC(C)C)C(=O)N[C@@H](CCC(=O)O)C(=O)N[C@@H](CCC(=O)O)C(=O)N[C@@H](Cc1c[nH]c2ccccc12)C(=O)N[C@@H](C)C(=O)N[C@@H](CCCCN)C(=O)N[C@@H](CCCCN)C(=O)N[C@@H](Cc1c[nH]c2ccccc12)C(=O)N[C@@H](CC(N)=O)C(=O)N[C@@H](Cc1c[nH]c2ccccc12)C(=O)N[C@@H](Cc1ccccc1)C(N)=O)C(C)C (Ac-YTSLIEELIKKSEEVQKKNEEELKKLEEWAKKWNWF-NH2) | 2.9 | 70.5 | 6.1 |
| CC[C@H](C)[C@H](NC(=O)[C@H](CC(C)C)NC(=O)[C@H](CCC(=O)O)NC(=O)[C@H](CCC(=O)O)NC(=O)[C@@H](NC(=O)[C@H](CC(C)C)NC(=O)[C@H](CO)NC(=O)[C@@H](NC(=O)[C@H](Cc1ccc(O)cc1)NC(C)=O)[C@@H](C)O)[C@@H](C)CC)C(=O)N[C@@H](CCCCN)C(=O)N[C@@H](CCCCN)C(=O)N[C@@H](CO)C(=O)N[C@@H](CCC(=O)O)C(=O)N[C@@H](CCC(=O)O)C(=O)N[C@@H](Cc1c[nH]c2ccccc12)C(=O)N[C@@H](CCC(N)=O)C(=O)N[C@@H](CCCCN)C(=O)N[C@@H](CCCCN)C(=O)N[C@@H](CC(N)=O)C(=O)N[C@@H](CCC(=O)O)C(=O)N[C@@H](CCC(=O)O)C(=O)N[C@@H](CCC(=O)O)C(=O)N[C@@H](CC(C)C)C(=O)N[C@@H](CCCCN)C(=O)N[C@@H](CCCCN)C(=O)N[C@@H](CC(C)C)C(=O)N[C@@H](CCC(=O)O)C(=O)N[C@@H](CCC(=O)O)C(=O)N[C@@H](Cc1c[nH]c2ccccc12)C(=O)N[C@@H](C)C(=O)N[C@@H](CCCCN)C(=O)N[C@@H](CCCCN)C(=O)N[C@@H](Cc1c[nH]c2ccccc12)C(=O)N[C@@H](CC(N)=O)C(=O)N[C@@H](Cc1c[nH]c2ccccc12)C(=O)N[C@@H](Cc1ccccc1)C(N)=O (Ac-YTSLIEELIKKSEEWQKKNEEELKKLEEWAKKWNWF-NH2) | 2.5 | 68.8 | 8.1 |
| CC[C@H](C)[C@H](NC(=O)[C@H](CC(C)C)NC(=O)[C@H](CCC(=O)O)NC(=O)[C@H](CCC(=O)O)NC(=O)[C@@H](NC(=O)[C@H](CC(C)C)NC(=O)[C@H](CO)NC(=O)[C@@H](NC(=O)[C@H](Cc1ccc(O)cc1)NC(C)=O)[C@@H](C)O)[C@@H](C)CC)C(=O)N[C@@H](CCCCN)C(=O)N[C@@H](CCCCN)C(=O)N[C@@H](CO)C(=O)N[C@@H](CCC(=O)O)C(=O)N[C@@H](CCC(=O)O)C(=O)N[C@@H](Cc1ccc(O)cc1)C(=O)N[C@@H](CCC(N)=O)C(=O)N[C@@H](CCCCN)C(=O)N[C@@H](CCCCN)C(=O)N[C@@H](CC(N)=O)C(=O)N[C@@H](CCC(=O)O)C(=O)N[C@@H](CCC(=O)O)C(=O)N[C@@H](CCC(=O)O)C(=O)N[C@@H](CC(C)C)C(=O)N[C@@H](CCCCN)C(=O)N[C@@H](CCCCN)C(=O)N[C@@H](CC(C)C)C(=O)N[C@@H](CCC(=O)O)C(=O)N[C@@H](CCC(=O)O)C(=O)N[C@@H](Cc1c[nH]c2ccccc12)C(=O)N[C@@H](C)C(=O)N[C@@H](CCCCN)C(=O)N[C@@H](CCCCN)C(=O)N[C@@H](Cc1c[nH]c2ccccc12)C(=O)N[C@@H](CC(N)=O)C(=O)N[C@@H](Cc1c[nH]c2ccccc12)C(=O)N[C@@H](Cc1ccccc1)C(N)=O (Ac-YTSLIEELIKKSEEYQKKNEEELKKLEEWAKKWNWF-NH2) | 2.3 | 67.7 | 4.9 |
